{"source": "patent US10435385B2", "about": "“Amide derivatives, process for preparation thereof and use thereof as insecticide” (MITSUI CHEMICALS, INC., priority 2004, dated 2019)", "key": {"[1]": {"tested_on": "common cutworm (Spodoptera litura)", "experiment": "Insecticidal testing against common cutworm (cabbage leaf dip, second-stage larvae)", "assay_type": "in vivo", "details": "comparative test, procedure and conditions of Experimental Example 1", "experimental": "(§1) Insecticidal Testing Against Common Cutworm (Spodoptera litura) Cabbage leaves were immersed in a liquid comprising the testing compound to a predetermined concentration for 30 seconds and air-dried. They were placed in a 7-cm polyethylene cup, and the second-stage larvae of common cutworm were left therein. The cup was placed in a constant-temperature room at 25° C., and the survival rate was investigated after 3 days. The test was carried out with two groups of 5 larvae per group. As a result, Compound No. (to be described later)"}, "[2]": {"tested_on": "diamondback moth (Plutella xylostella)", "experiment": "Insecticidal testing against diamondback moth (cabbage leaf dip, second-stage larvae)", "assay_type": "in vivo", "details": "comparative test, procedure and conditions of Experimental Example 2", "experimental": "as §1, with “Diamondback Moth (Plutella xylostella)” for “Common Cutworm (Spodoptera litura)”, “diamondback moth” for “common cutworm”"}}}
{"smiles": "Cc1cc(C(F)(F)F)cc(C)c1NC(=O)c1cccc(NC(=O)c2ccccc2)c1", "note": "[Compound B, N-(2,6-dimethyl-4-trifluoromethyl)phenyl 3-(benzoylamino)benzamide]", "values": [{"measurement": "insecticidal activity", "setting": "[1]", "result": "not observed"}, {"measurement": "insecticidal activity", "setting": "[2]", "result": "not observed"}]}
{"smiles": "Cc1cc(C(F)(C(F)(F)F)C(F)(F)F)ccc1NC(=O)c1cccc(NC(=O)c2ccccc2I)c1", "note": "[Compound A, N-(4-heptafluoroisopropyl-2-methyl)phenyl 3-(2-iodobenzoylamino)benzamide]", "values": [{"measurement": "insecticidal activity", "setting": "[1]", "result": "not observed"}, {"measurement": "insecticidal activity", "setting": "[2]", "result": "not observed"}]}
